We go through 17 molecules from PubChem BioAssay (NCI).

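In this assay, cells in 96-well plates receive the compound at five concentrations for 48 hours. Endpoints are linearly interpolated between the surrounding concentrations. At the TGI there is no net growth.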 Where a SMILES comes first, the peptide text is derived from it. The star is where a group is joined. Boc = CC(C)(C)OC(=O)*

For the first experiment, the system named is RXF-631 renal. Put plainly: NCI anticancer screen, dose series, 48 h.
Turning to `O=C1NC(=O)C2C(=O)NC(=O)C1C2c1c(Cl)cccc1Cl` (configuration not stated), the TGI was more than 100 µM.

`CC(=O)C(CN(CC(C)C)CC(C)C)C(c1ccccc1)c1c(O)c2ccccc2oc1=O` (configuration not stated): the TGI is more than 100 µM.

`CC1(C)OC(=O)C(C#N)=C1/C=C/c1coc2ccc(Cl)cc2c1=O`: the TGI is more than 100 µM.

In the next experiment the test system is KM20L2 colon. Nature of the experiment: NCI anticancer screen, dose series, 48 h.
`COc1ccc2c(c1)C(=O)C1CC(=O)CCC21` (configuration not stated) displayed a TGI of more than 100 µM.

`COc1cccc(NC(=O)CSc2nnc(-c3ccc(NC(C)=O)cc3)o2)c1` displayed a TGI of more than 100 µM.

In turn, `Clc1ccc(Nc2nc3ccccc3nc2-c2cccs2)cc1Cl` came in with a TGI of more than 100 µM.

With `O=c1nc(NC2CCCCO2)ccn1CCO` (configuration not stated), the TGI is more than 100 µM.

In the case of `COC(=O)c1onc(-c2c(OC)cc(OC)cc2OC)c1C(=O)OC`, the TGI was more than 100 µM.

`CCCCCCCOc1ccc(/C=C\c2cc[n+](CCCCCCCC[n+]3ccc(/C=C\c4ccc(OCCCCCCC)cc4)cc3)cc2)cc1` displayed a TGI of 63.1 µM.

`CC(C)(C)OC(=O)NC(Cc1ccc(O)cc1)C(=O)N1CCCC1C(=O)O` (stereo not drawn) (Boc-Tyr-Pro-OH; configuration not given here): the TGI is more than 100 µM.

In turn, `O=C(O)c1ccc(C2COc3ccc(Cl)cc3C2)cc1` (configuration not stated) yielded a TGI of more than 100 µM.

Molecule `CC(=O)NC(CCCNC(=O)N(CCCl)N=O)C(=O)NCc1ccccc1` (configuration not stated) gave a TGI of more than 100 µM.

With `COc1cccc(OC)c1C(=O)OCc1ccccc1`, the TGI is more than 100 µM.

In turn, `Cc1ccc(/C=C/C(=O)C(C)(C)CN2CCCCC2)cc1` gave a TGI of 10.7 µM.

Consider `O=C1NC(=O)C2C(=O)NC(=O)C1C2c1c(Cl)cccc1Cl` (configuration not stated), for which the TGI is more than 83.6 µM.

Regarding `O=C1OC(Cc2ccccc2)(N2CCCC2=O)C1c1ccccc1` (configuration not stated), the TGI is more than 100 µM.

In the case of `CC(=O)C(CN(CC(C)C)CC(C)C)C(c1ccccc1)c1c(O)c2ccccc2oc1=O` (configuration not stated), the TGI was more than 100 µM.

The molecule `CC1(C)OC(=O)C(C#N)=C1/C=C/c1coc2ccc(Cl)cc2c1=O` displayed a TGI of more than 100 µM.

A further experiment deals with CAKI-1 renal. Put plainly: NCI anticancer screen, dose series, 48 h.
`COc1ccc2c(c1)C(=O)C1CC(=O)CCC21` (configuration not stated) gave a TGI of more than 100 µM.

`COc1cccc(NC(=O)CSc2nnc(-c3ccc(NC(C)=O)cc3)o2)c1` yielded a TGI of more than 100 µM.

In the case of `O=c1nc(NC2CCCCO2)ccn1CCO` (configuration not stated), the TGI was more than 100 µM.

`COC(=O)c1onc(-c2c(OC)cc(OC)cc2OC)c1C(=O)OC` came in with a TGI of more than 100 µM.

On to `CCCCCCCOc1ccc(/C=C\c2cc[n+](CCCCCCCC[n+]3ccc(/C=C\c4ccc(OCCCCCCC)cc4)cc3)cc2)cc1`, for which the TGI was found to be 63.7 µM.

As for `CC(C)(C)OC(=O)NC(Cc1ccc(O)cc1)C(=O)N1CCCC1C(=O)O` (stereo not drawn) (Boc-Tyr-Pro-OH; configuration not given here), the TGI was more than 100 µM.

Molecule `O=C(O)c1ccc(C2COc3ccc(Cl)cc3C2)cc1` (configuration not stated) yielded a TGI of more than 100 µM.

Molecule `CC(=O)NC(CCCNC(=O)N(CCCl)N=O)C(=O)NCc1ccccc1` (configuration not stated) returned a TGI of more than 100 µM.

In turn, `COc1cccc(OC)c1C(=O)OCc1ccccc1` displayed a TGI of more than 100 µM.

As for `Cc1ccc(/C=C/C(=O)C(C)(C)CN2CCCCC2)cc1`, the TGI amounted to 14.2 µM.

The molecule `CC(=O)CN(Cc1cc(C)c2c(c1)c1ccccc1n2Cc1ccccc1)S(=O)(=O)c1ccc(C)cc1` yielded a TGI of more than 100 µM.

`O=C1NC(=O)C2C(=O)NC(=O)C1C2c1c(Cl)cccc1Cl` (configuration not stated) gave a TGI of more than 100 µM.

The molecule `O=C1OC(Cc2ccccc2)(N2CCCC2=O)C1c1ccccc1` (configuration not stated) yielded a TGI of more than 100 µM.

For the molecule `CC(=O)C(CN(CC(C)C)CC(C)C)C(c1ccccc1)c1c(O)c2ccccc2oc1=O` (configuration not stated), the TGI was more than 100 µM.

The molecule `CC1(C)OC(=O)C(C#N)=C1/C=C/c1coc2ccc(Cl)cc2c1=O` came in with a TGI of 57.5 µM.

The next experiment relates to SF-268 CNS. Put plainly: NCI anticancer screen, dose series, 48 h.
`COc1ccc2c(c1)C(=O)C1CC(=O)CCC21` (configuration not stated): the TGI is more than 100 µM.

In turn, `COc1cccc(NC(=O)CSc2nnc(-c3ccc(NC(C)=O)cc3)o2)c1` returned a TGI of more than 100 µM.

The molecule `Clc1ccc(Nc2nc3ccccc3nc2-c2cccs2)cc1Cl` had a TGI of more than 100 µM.

`CCn1c2ccccc2c2ccc3c(c21)C(=O)C=CC3=O` registered a TGI of 40 µM.

Regarding `O=c1nc(NC2CCCCO2)ccn1CCO` (configuration not stated), the TGI was more than 100 µM.

For `COC(=O)c1onc(-c2c(OC)cc(OC)cc2OC)c1C(=O)OC`, the TGI was more than 100 µM.

`CCCCCCCOc1ccc(/C=C\c2cc[n+](CCCCCCCC[n+]3ccc(/C=C\c4ccc(OCCCCCCC)cc4)cc3)cc2)cc1` had a TGI of 44.6 µM.

As for `CC(C)(C)OC(=O)NC(Cc1ccc(O)cc1)C(=O)N1CCCC1C(=O)O` (stereo not drawn) (Boc-Tyr-Pro-OH; configuration not given here), the TGI was more than 100 µM.

The molecule `O=C(O)c1ccc(C2COc3ccc(Cl)cc3C2)cc1` (configuration not stated) gave a TGI of more than 100 µM.

Molecule `CC(=O)NC(CCCNC(=O)N(CCCl)N=O)C(=O)NCc1ccccc1` (configuration not stated) gave a TGI of more than 100 µM.

Regarding `COc1cccc(OC)c1C(=O)OCc1ccccc1`, the TGI was more than 100 µM.

`Cc1ccc(/C=C/C(=O)C(C)(C)CN2CCCCC2)cc1` registered a TGI of 36.2 µM.

`CC(=O)CN(Cc1cc(C)c2c(c1)c1ccccc1n2Cc1ccccc1)S(=O)(=O)c1ccc(C)cc1` gave a TGI of more than 100 µM.

For the molecule `O=C1NC(=O)C2C(=O)NC(=O)C1C2c1c(Cl)cccc1Cl` (configuration not stated), the TGI is more than 96.7 µM.

The molecule `O=C1OC(Cc2ccccc2)(N2CCCC2=O)C1c1ccccc1` (configuration not stated) had a TGI of more than 100 µM.

In the case of `CC(=O)C(CN(CC(C)C)CC(C)C)C(c1ccccc1)c1c(O)c2ccccc2oc1=O` (configuration not stated), the TGI was more than 100 µM.

Consider `CC1(C)OC(=O)C(C#N)=C1/C=C/c1coc2ccc(Cl)cc2c1=O`, for which the TGI is more than 100 µM.

The test system of the next experiment is RXF 393 renal. Put plainly: NCI anticancer screen, dose series, 48 h.
For `COc1cccc(NC(=O)CSc2nnc(-c3ccc(NC(C)=O)cc3)o2)c1`, the TGI is more than 100 µM.

For `Clc1ccc(Nc2nc3ccccc3nc2-c2cccs2)cc1Cl`, the TGI is 89.2 µM.

In the case of `O=c1nc(NC2CCCCO2)ccn1CCO` (configuration not stated), the TGI was more than 100 µM.

The molecule `COC(=O)c1onc(-c2c(OC)cc(OC)cc2OC)c1C(=O)OC` displayed a TGI of more than 100 µM.

In the case of `CCCCCCCOc1ccc(/C=C\c2cc[n+](CCCCCCCC[n+]3ccc(/C=C\c4ccc(OCCCCCCC)cc4)cc3)cc2)cc1`, the TGI is more than 100 µM.

As to `CC(C)(C)OC(=O)NC(Cc1ccc(O)cc1)C(=O)N1CCCC1C(=O)O` (stereo not drawn) (Boc-Tyr-Pro-OH; configuration not given here), the TGI was more than 100 µM.

As to `O=C(O)c1ccc(C2COc3ccc(Cl)cc3C2)cc1` (configuration not stated), the TGI was more than 100 µM.

`CC(=O)NC(CCCNC(=O)N(CCCl)N=O)C(=O)NCc1ccccc1` (configuration not stated): the TGI was more than 100 µM.

`COc1cccc(OC)c1C(=O)OCc1ccccc1` yielded a TGI of more than 100 µM.

`Cc1ccc(/C=C/C(=O)C(C)(C)CN2CCCCC2)cc1` had a TGI of 18.7 µM.

On to `O=C1NC(=O)C2C(=O)NC(=O)C1C2c1c(Cl)cccc1Cl` (configuration not stated), for which the TGI worked out at 98.1 µM.

Turning to `CC(=O)C(CN(CC(C)C)CC(C)C)C(c1ccccc1)c1c(O)c2ccccc2oc1=O` (configuration not stated), the TGI was more than 100 µM.
